Measurements from ChEMBL document CHEMBL3351764, “Design, synthesis and biological activity of flavonoid derivatives as selective agonists for neuromedin U 2 receptor” (Bioorg Med Chem, 2014).
Active and inactive are the calls of the source.

Experiments:
[1] = molecular target: T1, Orexin receptor type 2 (Homo sapiens) (UniProt O43614); assay: Agonist activity at human orexin 2 receptor at 100 uM to 5 mM
T1 sequence (whole entry): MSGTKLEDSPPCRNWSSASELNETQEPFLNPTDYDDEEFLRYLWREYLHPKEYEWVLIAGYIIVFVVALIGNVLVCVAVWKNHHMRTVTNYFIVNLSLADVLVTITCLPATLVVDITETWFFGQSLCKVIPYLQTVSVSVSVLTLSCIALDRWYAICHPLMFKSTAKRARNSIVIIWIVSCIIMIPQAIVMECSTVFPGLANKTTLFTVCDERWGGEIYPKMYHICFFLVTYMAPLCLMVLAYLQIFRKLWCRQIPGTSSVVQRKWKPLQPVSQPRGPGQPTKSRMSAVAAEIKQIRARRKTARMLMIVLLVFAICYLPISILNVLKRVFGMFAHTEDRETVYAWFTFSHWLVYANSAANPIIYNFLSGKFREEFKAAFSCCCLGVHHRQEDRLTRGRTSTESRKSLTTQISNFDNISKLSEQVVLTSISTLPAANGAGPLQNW

[2] = molecular target: Glucagon receptor (Homo sapiens) (UniProt P47871); assay: Agonist activity at human Glu receptor at 100 uM to 5 mM
[3] = molecular target: T2, Muscarinic acetylcholine receptor M1 (Homo sapiens) (UniProt P11229); assay: Agonist activity at human M1 receptor at 100 uM to 5 mM
T2 sequence (whole entry): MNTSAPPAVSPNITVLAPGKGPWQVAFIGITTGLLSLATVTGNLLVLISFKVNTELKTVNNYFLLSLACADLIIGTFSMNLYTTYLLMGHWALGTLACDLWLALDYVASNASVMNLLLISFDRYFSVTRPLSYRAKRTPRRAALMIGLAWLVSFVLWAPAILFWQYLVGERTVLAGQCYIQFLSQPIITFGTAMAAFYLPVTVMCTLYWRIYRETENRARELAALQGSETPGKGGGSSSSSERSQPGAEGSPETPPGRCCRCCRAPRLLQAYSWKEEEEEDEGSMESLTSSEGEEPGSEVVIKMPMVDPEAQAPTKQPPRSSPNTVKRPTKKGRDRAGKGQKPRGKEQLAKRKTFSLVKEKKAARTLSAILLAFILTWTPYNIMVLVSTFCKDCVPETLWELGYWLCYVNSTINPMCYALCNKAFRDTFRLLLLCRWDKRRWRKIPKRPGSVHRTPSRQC

[4] = molecular target: T3, 5-hydroxytryptamine receptor 2C (Homo sapiens) (UniProt P28335); assay: Agonist activity at human 5HT2C receptor at 100 uM to 5 mM
T3 sequence (whole entry): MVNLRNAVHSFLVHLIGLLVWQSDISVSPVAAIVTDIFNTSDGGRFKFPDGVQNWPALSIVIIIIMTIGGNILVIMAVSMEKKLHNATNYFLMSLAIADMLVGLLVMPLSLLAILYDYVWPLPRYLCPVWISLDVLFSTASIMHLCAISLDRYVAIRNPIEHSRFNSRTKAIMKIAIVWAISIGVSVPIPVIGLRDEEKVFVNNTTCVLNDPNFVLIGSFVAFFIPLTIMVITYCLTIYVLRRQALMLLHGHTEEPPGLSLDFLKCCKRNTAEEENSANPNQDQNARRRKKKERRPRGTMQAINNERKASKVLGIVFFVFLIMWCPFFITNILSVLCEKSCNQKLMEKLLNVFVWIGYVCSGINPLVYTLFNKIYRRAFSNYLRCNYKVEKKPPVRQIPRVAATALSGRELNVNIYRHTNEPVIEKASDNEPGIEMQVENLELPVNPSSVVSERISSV

[5] = molecular target: D(1B) dopamine receptor (Homo sapiens) (UniProt P21918); assay: Agonist activity at human D5 receptor at 100 uM to 5 mM
[6] = molecular target: Melanocyte-stimulating hormone receptor (Homo sapiens) (UniProt Q01726); assay: Agonist activity at human MC1 receptor at 100 uM to 5 mM
[7] = molecular target: Melanocortin receptor 4 (Mus musculus) (UniProt P56450); assay: Agonist activity at mouse MC4 receptor at 100 uM to 5 mM
[8] = molecular target: T4, Neuromedin-U receptor 1 (Homo sapiens) (UniProt Q9HB89); assay: Agonist activity at human NMU1 receptor at 100 uM to 5 mM
T4 sequence (whole entry): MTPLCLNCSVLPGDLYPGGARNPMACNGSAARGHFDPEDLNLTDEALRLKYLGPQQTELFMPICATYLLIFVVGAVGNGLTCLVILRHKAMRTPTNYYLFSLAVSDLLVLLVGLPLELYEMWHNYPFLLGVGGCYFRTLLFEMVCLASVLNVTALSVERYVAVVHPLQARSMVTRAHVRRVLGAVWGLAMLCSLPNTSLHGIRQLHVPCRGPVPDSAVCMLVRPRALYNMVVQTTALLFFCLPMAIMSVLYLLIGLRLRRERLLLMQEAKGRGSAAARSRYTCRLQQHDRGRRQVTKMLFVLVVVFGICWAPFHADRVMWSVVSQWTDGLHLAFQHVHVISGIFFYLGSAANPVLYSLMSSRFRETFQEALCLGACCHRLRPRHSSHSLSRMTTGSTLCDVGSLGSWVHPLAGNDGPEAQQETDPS

[9] = molecular target: T5, Adenosine receptor A3 (Homo sapiens) (UniProt P0DMS8); assay: Agonist activity at human A3 receptor at 100 uM to 5 mM
T5 sequence (whole entry): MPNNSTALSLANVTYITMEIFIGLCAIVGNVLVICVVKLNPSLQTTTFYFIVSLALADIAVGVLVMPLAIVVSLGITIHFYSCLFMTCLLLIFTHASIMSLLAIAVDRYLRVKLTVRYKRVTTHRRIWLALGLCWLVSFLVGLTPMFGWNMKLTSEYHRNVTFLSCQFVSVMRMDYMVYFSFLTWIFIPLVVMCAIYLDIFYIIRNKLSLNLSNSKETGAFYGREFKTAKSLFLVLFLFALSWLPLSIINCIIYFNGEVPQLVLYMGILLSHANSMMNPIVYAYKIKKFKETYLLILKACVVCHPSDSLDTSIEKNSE

[10] = molecular target: Melanocortin receptor 4 (Homo sapiens) (UniProt P32245); assay: Agonist activity at human MC4 receptor at 100 uM to 5 mM
[11] = molecular target: Adenosine receptor A2a (Homo sapiens) (UniProt P29274); assay: Agonist activity at human A2a receptor at 100 uM to 5 mM

Measured: Activity

Chain of Melanocortin receptor 4 (Homo sapiens) (P32245 whole entry): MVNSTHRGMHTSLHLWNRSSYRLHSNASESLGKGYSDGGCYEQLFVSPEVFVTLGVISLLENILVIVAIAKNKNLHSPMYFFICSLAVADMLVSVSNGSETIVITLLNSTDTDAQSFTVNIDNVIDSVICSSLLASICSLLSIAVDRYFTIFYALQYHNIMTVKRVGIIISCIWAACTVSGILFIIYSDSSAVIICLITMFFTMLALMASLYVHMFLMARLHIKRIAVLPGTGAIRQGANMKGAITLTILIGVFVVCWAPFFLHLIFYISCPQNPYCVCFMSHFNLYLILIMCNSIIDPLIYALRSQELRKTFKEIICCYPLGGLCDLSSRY
Chain of Melanocortin receptor 4 (Mus musculus) (P56450 whole entry): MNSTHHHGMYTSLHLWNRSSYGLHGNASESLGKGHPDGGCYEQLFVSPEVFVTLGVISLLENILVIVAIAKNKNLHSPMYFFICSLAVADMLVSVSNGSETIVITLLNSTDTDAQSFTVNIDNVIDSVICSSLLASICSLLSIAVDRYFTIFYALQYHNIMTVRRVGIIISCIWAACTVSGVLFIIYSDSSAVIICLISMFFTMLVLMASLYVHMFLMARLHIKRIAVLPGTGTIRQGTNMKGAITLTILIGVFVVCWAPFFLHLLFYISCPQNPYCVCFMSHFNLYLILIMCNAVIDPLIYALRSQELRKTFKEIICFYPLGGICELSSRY
Chain of Glucagon receptor (Homo sapiens) (P47871 whole entry): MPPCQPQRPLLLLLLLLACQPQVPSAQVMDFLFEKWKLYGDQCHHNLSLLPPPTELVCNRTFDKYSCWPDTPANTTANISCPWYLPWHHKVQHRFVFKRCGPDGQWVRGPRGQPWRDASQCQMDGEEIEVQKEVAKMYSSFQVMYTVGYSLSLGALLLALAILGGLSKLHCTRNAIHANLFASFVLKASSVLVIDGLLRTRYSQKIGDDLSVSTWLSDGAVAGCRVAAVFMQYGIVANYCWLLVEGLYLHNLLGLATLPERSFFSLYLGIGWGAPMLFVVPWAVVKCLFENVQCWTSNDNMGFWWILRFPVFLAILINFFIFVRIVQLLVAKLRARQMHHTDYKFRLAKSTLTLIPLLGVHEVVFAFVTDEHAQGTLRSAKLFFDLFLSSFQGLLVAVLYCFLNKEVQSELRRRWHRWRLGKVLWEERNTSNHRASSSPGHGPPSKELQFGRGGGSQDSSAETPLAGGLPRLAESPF
Chain of Adenosine receptor A2a (Homo sapiens) (P29274 whole entry): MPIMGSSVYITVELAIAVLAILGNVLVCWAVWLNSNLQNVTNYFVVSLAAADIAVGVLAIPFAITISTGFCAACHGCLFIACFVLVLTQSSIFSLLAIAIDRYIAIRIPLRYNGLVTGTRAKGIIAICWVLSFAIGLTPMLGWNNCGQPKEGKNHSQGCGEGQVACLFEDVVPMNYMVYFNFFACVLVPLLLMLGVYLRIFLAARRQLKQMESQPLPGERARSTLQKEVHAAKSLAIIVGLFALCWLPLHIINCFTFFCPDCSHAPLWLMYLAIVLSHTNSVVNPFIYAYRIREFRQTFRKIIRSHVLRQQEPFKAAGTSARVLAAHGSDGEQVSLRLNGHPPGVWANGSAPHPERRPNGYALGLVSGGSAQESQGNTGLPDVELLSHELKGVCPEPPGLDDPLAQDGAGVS
Chain of D(1B) dopamine receptor (Homo sapiens) (P21918 whole entry): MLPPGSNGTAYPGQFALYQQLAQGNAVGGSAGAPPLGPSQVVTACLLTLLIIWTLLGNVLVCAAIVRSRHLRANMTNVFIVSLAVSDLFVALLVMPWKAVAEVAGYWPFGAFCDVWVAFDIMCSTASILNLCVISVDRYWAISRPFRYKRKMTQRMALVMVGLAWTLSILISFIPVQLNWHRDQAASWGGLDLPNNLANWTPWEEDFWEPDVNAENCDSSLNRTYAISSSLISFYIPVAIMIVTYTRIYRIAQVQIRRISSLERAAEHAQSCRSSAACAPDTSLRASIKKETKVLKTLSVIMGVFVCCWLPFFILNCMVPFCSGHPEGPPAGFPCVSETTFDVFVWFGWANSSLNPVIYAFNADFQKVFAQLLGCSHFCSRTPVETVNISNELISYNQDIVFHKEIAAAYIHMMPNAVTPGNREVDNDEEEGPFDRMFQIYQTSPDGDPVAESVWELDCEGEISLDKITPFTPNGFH
Chain of Melanocyte-stimulating hormone receptor (Homo sapiens) (Q01726 whole entry, looked up): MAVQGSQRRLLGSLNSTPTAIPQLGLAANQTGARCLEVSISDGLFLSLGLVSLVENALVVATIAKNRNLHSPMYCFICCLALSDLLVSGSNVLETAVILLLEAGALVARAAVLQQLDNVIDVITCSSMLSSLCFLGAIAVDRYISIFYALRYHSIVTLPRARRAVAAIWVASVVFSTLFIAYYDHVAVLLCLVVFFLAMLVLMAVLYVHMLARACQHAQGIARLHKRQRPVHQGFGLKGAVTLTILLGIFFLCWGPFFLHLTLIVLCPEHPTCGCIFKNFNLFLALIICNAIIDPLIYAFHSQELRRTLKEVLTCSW

O=c1c(O)c(-c2cccc(Cl)c2)oc2ccccc12
inactive: all assays above

COc1ccc(-c2cc(=O)c3ccccc3o2)cc1O
inactive: all assays above

O=c1c(O)c(-c2ccc(O)cc2)oc2ccccc12
inactive: all assays above

CN(C)c1ccc(-c2oc3ccccc3c(=O)c2O)cc1
inactive: all assays above

Fc1ccccc1C1C=Cc2ccccc2O1 (racemic)
inactive: all assays above

COc1cc(-c2cc(=O)c3ccccc3o2)ccc1O
inactive: all assays above

CCOC(=O)COc1c(-c2cc(Br)ccc2F)oc2ccccc2c1=O
inactive: all assays above

O=c1c(OCCO)c(-c2cc(Br)ccc2F)oc2ccccc12
inactive: all assays above

O=c1cc(-c2ccccc2F)oc2ccccc12
inactive: all assays above

O=c1cc(-c2ccc(O)cc2)oc2ccccc12
inactive: all assays above

COc1ccc(F)c(-c2oc3ccccc3c(=O)c2O)c1
inactive: all assays above
